Measurements from publication PMC10762078, “Role of UPF1-LIN28A interaction during early differentiation of pluripotent stem cells” (Nature Communications, 2024).

Experiments:
[1] = test system: CHA15 cells; assay: Flow cytometry of SOX1, DLK1 and LHX2 during ectodermal differentiation (Fig. 7b, Supplementary Fig. 7f); type: cell-based, human; design: unit not given here; settings: mean from t test output, scale differs from set1-set3 values
Method: (§1) For CPP-conjugated peptide delivery, HeLa, 293T, and PA-1 cells were incubated with CPP-conjugated peptides or CPP-FITC at 2 μM in DMEM with 10% FBS for 12 h a day before cell harvest. hPSCs were treated with CPP-conjugated peptides at 10 μM in mTeSR Plus Medium, and the peptide-containing medium was changed every day over 10 days. The ROCK inhibitor (Tocris Bioscience, Y-27632) treated-hPSCs were dissociated into single cells using Accutase (Merck, SCR005) and differentiated into ectoderm, mesoderm, and endoderm using the STEMdiff Trilineage Differentiation Kit ([…] Technologies, 05230) following the manufacturer’s protocol. Differentiated cells treated with CPP-conjugated peptides were analysed at 0, 3, and 5 days for ectoderm and endoderm, and at 0, 3, and 4 days for mesoderm.
To evaluate the relative cell number expressing the indicated proteins, CHA15 cells with the indicated CPP-conjugated peptide were fixed with BD Cytofix Fixation Buffer (BD Biosciences Pharmingen, 554655) followed by permeabilization with 0.1% BSA/PBS solution supplemented with 10% NGS and 0.3% Triton X-100 for 1 h at 4 °C. After washing, cells were incubated with the primary antibodies (OCT4 1:1000, NANOG 1:1000, DLK1 1:1000, SOX2 1:1000, LHX2 1:1000) and then, secondary antibody, Alexa Fluor 488 (1:1000), was applied. The positive cells were determined using flow cytometry (FACSCanto, BD Pharmingen), and data was analysed using the Flow Jo-v10 software program.

[2] = test system: hPSCs; assay: RT-qPCR of pluripotency and germ-layer markers during differentiation with CPP-peptides (Supplementary Fig. 7b-e); type: cell-based, human
Method: as §1, with “mesoderm. […]” for “mesoderm.”
cDNA was synthesised using RevertAid Reverse Transcriptase (Thermo Fisher Scientific, EP0441) with synthesised random hexamer (Macrogen) for total RNA or stem-loop primers for miRNA. For RT-qPCR reactions, the SensiFAST SYBR No-ROX kit (Meridian Bioscience) was used according to the manufacturer’s protocol. All data analysis and visualisation were conducted using R 3.6.1 [www.r-project.org] or GraphPad Prism 10. RT primers for miRNA and RT-qPCR primer sequences are provided in Supplementary Data 6. […]
FPKM of each gene was presented f r om RNA-seq analysis. b–e hPSCs wer e treated with the indicated peptide during each germ la ye r differentiation. […]
An unpaired Student’s t-test was used for a–e. Data are presented as mean values ± SEM. All statistical test us ed wer e two-s ided. T he m inim um number of independent biological replicate experim ents was a–f n = 3. T he experiments wer e conducted three tim es, each iteration producing consistent results.

[3] = Fig. s7d, day 3, mean of 3 replicates
[4] = Fig. s7d, day 4, mean of 3 replicates

Substance: N-QKLDQKELQLEPM-C [P1, reference compound]
- DLK1 FACS, mean [1]: 6634
- LHX2 FACS, mean [1]: 6112
- SOX1 FACS, mean [1]: 8503
- CXCR4 (RT-qPCR) ([2]; Day 0, replicate 1, Fig. s7e): 1.088
- CXCR4 (RT-qPCR) ([2]; Day 0, replicate 2, Fig. s7e): 0.7848
- CXCR4 (RT-qPCR) ([2]; Day 0, replicate 3, Fig. s7e): 1.127
- CXCR4 (RT-qPCR) ([2]; Day 3, replicate 1, Fig. s7e): 801.652
- CXCR4 (RT-qPCR) ([2]; Day 3, replicate 2, Fig. s7e): 485.59
- CXCR4 (RT-qPCR) ([2]; Day 3, replicate 3, Fig. s7e): 555.318
- CXCR4 (RT-qPCR) ([2]; Day 5, replicate 1, Fig. s7e): 1042.02
- CXCR4 (RT-qPCR) ([2]; Day 5, replicate 2, Fig. s7e): 799.656
- CXCR4 (RT-qPCR) ([2]; Day 5, replicate 3, Fig. s7e): 801.596
- Mean CXCR4 (RT-qPCR) ([2]; CXCR4 day 3, mean of n = 3, Fig. s7e): 614.2
- Mean CXCR4 (RT-qPCR) ([2]; CXCR4 day 5, mean of n = 3, Fig. s7e): 881.1
- FOXA1 (RT-qPCR) ([2]; Day 0, replicate 1, Fig. s7e): 1.247
- FOXA1 (RT-qPCR) ([2]; Day 0, replicate 2, Fig. s7e): 1.413
- FOXA1 (RT-qPCR) ([2]; Day 0, replicate 3, Fig. s7e): 0.3396
- FOXA1 (RT-qPCR) ([2]; Day 3, replicate 1, Fig. s7e): 110.429
- FOXA1 (RT-qPCR) ([2]; Day 3, replicate 2, Fig. s7e): 100.761
- FOXA1 (RT-qPCR) ([2]; Day 3, replicate 3, Fig. s7e): 171.159
- FOXA1 (RT-qPCR) ([2]; Day 5, replicate 1, Fig. s7e): 247.532
- FOXA1 (RT-qPCR) ([2]; Day 5, replicate 2, Fig. s7e): 297.277
- FOXA1 (RT-qPCR) ([2]; Day 5, replicate 3, Fig. s7e): 395.679
- Mean FOXA1 (RT-qPCR) ([2]; FOXA1 day 5, mean of n = 3, Fig. s7e): 313.5
- SOX2 mRNA level (RT-qPCR), mean ([2]; Fig. s7b, mesoderm, day 4, mean of 3 replicates): 0.001971
- BMP2 mRNA level (RT-qPCR) ([2]; Fig. s7d, Day 0, replicate 1): 0.8054
- BMP4 mRNA level (RT-qPCR) ([2]; Fig. s7d, Day 0, replicate 1): 1.545
- CDH2 mRNA level (RT-qPCR) ([2]; Fig. s7d, Day 0, replicate 1): 1.016
- CXCR4 mRNA level (RT-qPCR) ([2]; Fig. s7d, Day 0, replicate 1): 0.9995
- SNAI1 mRNA level (RT-qPCR) ([2]; Fig. s7d, Day 0, replicate 1): 1.4406
- TBXT mRNA level (RT-qPCR) ([2]; Fig. s7d, Day 0, replicate 1): 1.3
- BMP2 mRNA level (RT-qPCR) ([2]; Fig. s7d, Day 0, replicate 2): 1.199
- BMP4 mRNA level (RT-qPCR) ([2]; Fig. s7d, Day 0, replicate 2): 0.6508
- CDH2 mRNA level (RT-qPCR) ([2]; Fig. s7d, Day 0, replicate 2): 0.7569
- CXCR4 mRNA level (RT-qPCR) ([2]; Fig. s7d, Day 0, replicate 2): 1.121
- SNAI1 mRNA level (RT-qPCR) ([2]; Fig. s7d, Day 0, replicate 2): 0.9418
- TBXT mRNA level (RT-qPCR) ([2]; Fig. s7d, Day 0, replicate 2): 0.8652
- BMP2 mRNA level (RT-qPCR) ([2]; Fig. s7d, Day 0, replicate 3): 0.9954
- BMP4 mRNA level (RT-qPCR) ([2]; Fig. s7d, Day 0, replicate 3): 0.8046
- CDH2 mRNA level (RT-qPCR) ([2]; Fig. s7d, Day 0, replicate 3): 1.227
- CXCR4 mRNA level (RT-qPCR) ([2]; Fig. s7d, Day 0, replicate 3): 0.8798
- SNAI1 mRNA level (RT-qPCR) ([2]; Fig. s7d, Day 0, replicate 3): 0.6176
- TBXT mRNA level (RT-qPCR) ([2]; Fig. s7d, Day 0, replicate 3): 0.8351
- BMP2 mRNA level (RT-qPCR) ([2]; Fig. s7d, Day 3, replicate 1): 1.069
- BMP4 mRNA level (RT-qPCR) ([2]; Fig. s7d, Day 3, replicate 1): 26.604
- CDH2 mRNA level (RT-qPCR) ([2]; Fig. s7d, Day 3, replicate 1): 19.4651
- CXCR4 mRNA level (RT-qPCR) ([2]; Fig. s7d, Day 3, replicate 1): 690.154
- SNAI1 mRNA level (RT-qPCR) ([2]; Fig. s7d, Day 3, replicate 1): 17.0238
- TBXT mRNA level (RT-qPCR) ([2]; Fig. s7d, Day 3, replicate 1): 6332.26
- BMP2 mRNA level (RT-qPCR) ([2]; Fig. s7d, Day 3, replicate 2): 1.012
- BMP4 mRNA level (RT-qPCR) ([2]; Fig. s7d, Day 3, replicate 2): 28.0652
- CDH2 mRNA level (RT-qPCR) ([2]; Fig. s7d, Day 3, replicate 2): 19.9537
- CXCR4 mRNA level (RT-qPCR) ([2]; Fig. s7d, Day 3, replicate 2): 760.409
- SNAI1 mRNA level (RT-qPCR) ([2]; Fig. s7d, Day 3, replicate 2): 25.1744
- TBXT mRNA level (RT-qPCR) ([2]; Fig. s7d, Day 3, replicate 2): 7659.6
- BMP2 mRNA level (RT-qPCR) ([2]; Fig. s7d, Day 3, replicate 3): 1.524
- BMP4 mRNA level (RT-qPCR) ([2]; Fig. s7d, Day 3, replicate 3): 46.0509
- CDH2 mRNA level (RT-qPCR) ([2]; Fig. s7d, Day 3, replicate 3): 27.2966
- CXCR4 mRNA level (RT-qPCR) ([2]; Fig. s7d, Day 3, replicate 3): 857.014
- SNAI1 mRNA level (RT-qPCR) ([2]; Fig. s7d, Day 3, replicate 3): 26.6105
- TBXT mRNA level (RT-qPCR) ([2]; Fig. s7d, Day 3, replicate 3): 10449.6
- BMP2 mRNA level (RT-qPCR) ([2]; Fig. s7d, Day 4, replicate 1): 0.2301
- BMP4 mRNA level (RT-qPCR) ([2]; Fig. s7d, Day 4, replicate 1): 13.0546
- CDH2 mRNA level (RT-qPCR) ([2]; Fig. s7d, Day 4, replicate 1): 16.734
- CXCR4 mRNA level (RT-qPCR) ([2]; Fig. s7d, Day 4, replicate 1): 712.401
- SNAI1 mRNA level (RT-qPCR) ([2]; Fig. s7d, Day 4, replicate 1): 5.736
- TBXT mRNA level (RT-qPCR) ([2]; Fig. s7d, Day 4, replicate 1): 3587.41
- BMP2 mRNA level (RT-qPCR) ([2]; Fig. s7d, Day 4, replicate 2): 0.3418
- BMP4 mRNA level (RT-qPCR) ([2]; Fig. s7d, Day 4, replicate 2): 14.5702
- CDH2 mRNA level (RT-qPCR) ([2]; Fig. s7d, Day 4, replicate 2): 18.1378
- CXCR4 mRNA level (RT-qPCR) ([2]; Fig. s7d, Day 4, replicate 2): 778.248
- SNAI1 mRNA level (RT-qPCR) ([2]; Fig. s7d, Day 4, replicate 2): 15.183
- TBXT mRNA level (RT-qPCR) ([2]; Fig. s7d, Day 4, replicate 2): 4442.19
- BMP2 mRNA level (RT-qPCR) ([2]; Fig. s7d, Day 4, replicate 3): 0.2814
- BMP4 mRNA level (RT-qPCR) ([2]; Fig. s7d, Day 4, replicate 3): 11.4814
- CDH2 mRNA level (RT-qPCR) ([2]; Fig. s7d, Day 4, replicate 3): 17.3255
- CXCR4 mRNA level (RT-qPCR) ([2]; Fig. s7d, Day 4, replicate 3): 495.057
- SNAI1 mRNA level (RT-qPCR) ([2]; Fig. s7d, Day 4, replicate 3): 11.0955
- TBXT mRNA level (RT-qPCR) ([2]; Fig. s7d, Day 4, replicate 3): 3830.03
- SNAI1 mRNA level (RT-qPCR), mean [2, 3]: 22.94
- TBXT mRNA level (RT-qPCR), mean [2, 3]: 8147
- BMP4 mRNA level (RT-qPCR), mean [2, 4]: 13.04
- CDH2 mRNA level (RT-qPCR), mean [2, 4]: 17.4
- TBXT mRNA level (RT-qPCR), mean [2, 4]: 3953
- GATA4 (RT-qPCR) ([2]; Day 0, replicate 1, Fig. s7e): 0.7242
- GATA4 (RT-qPCR) ([2]; Day 0, replicate 2, Fig. s7e): 1.3517
- GATA4 (RT-qPCR) ([2]; Day 0, replicate 3, Fig. s7e): 0.9241
- GATA4 (RT-qPCR) ([2]; Day 3, replicate 1, Fig. s7e): 30.0473
- GATA4 (RT-qPCR) ([2]; Day 3, replicate 2, Fig. s7e): 43.5025
- GATA4 (RT-qPCR) ([2]; Day 3, replicate 3, Fig. s7e): 37.4013
- GATA4 (RT-qPCR) ([2]; Day 5, replicate 1, Fig. s7e): 61.3703
- GATA4 (RT-qPCR) ([2]; Day 5, replicate 2, Fig. s7e): 60.3509
- GATA4 (RT-qPCR) ([2]; Day 5, replicate 3, Fig. s7e): 57.9664
- SOX17 (RT-qPCR) ([2]; Day 0, replicate 1, Fig. s7e): 1.264
- SOX17 (RT-qPCR) ([2]; Day 0, replicate 2, Fig. s7e): 0.8709
- SOX17 (RT-qPCR) ([2]; Day 0, replicate 3, Fig. s7e): 0.8647
- SOX17 (RT-qPCR) ([2]; Day 3, replicate 1, Fig. s7e): 1651.55
- SOX17 (RT-qPCR) ([2]; Day 3, replicate 2, Fig. s7e): 1098.49
- SOX17 (RT-qPCR) ([2]; Day 3, replicate 3, Fig. s7e): 1780.82
- SOX17 (RT-qPCR) ([2]; Day 5, replicate 1, Fig. s7e): 1087.63
- SOX17 (RT-qPCR) ([2]; Day 5, replicate 2, Fig. s7e): 1382.51
- SOX17 (RT-qPCR) ([2]; Day 5, replicate 3, Fig. s7e): 1398.03
